The source of these data is ChEMBL document CHEMBL1201862, “PubChem BioAssay data set” (2004).

Holding throughout (assay): NCI-60 cell line screen, 48 h
Assay [1] concerns BT-549.
The subject of assay [2] is HCT-116.
The subject of assay [3] is HOP-62.
Assay [4] deals with HOP-92.
Assay [5] relates to IGROV-1.
For assay [6], the system named is K562.
Assay [7] deals with KM12.
The test system of assay [8] is M14.
For assay [9], the system named is MDA-N.
In assay [10] the test system is NCI-H226.
Assay [11] deals with OVCAR-4.
Assay [12] deals with OVCAR-8.
The subject of assay [13] is PC-3.
For assay [14], the system named is SF-295.
Assay [15] relates to SK-MEL-2.
Assay [16] concerns SK-OV-3.
Assay [17] concerns U-251.
The test system of assay [18] is UO-31.
The subject of assay [19] is NCI-H522.
In assay [20] the test system is SF-268.

Structures are written as SMILES.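 Assay format: 96-well plates, 48-hour exposure. GI50 marks 50% less growth.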 Activity calls are given as the source filed them. Cut-off read from the data, not from the text of the source: active = GI50 up to about 1.1 µM and inactive = higher.

Regarding `C=C1CC[C@]2(C)[C@H](CC[C@@]34C[C@@H](CC[C@H]32)[C@@H](C(=O)O)C4)C1(C)C`, the GI50 in assay [1] is > 12.5 µM (inactive); in assay [2], > 12.5 µM (inactive); in assay [3], 5.36 µM (inactive); in assay [4], 5.5 µM (inactive); in assay [5], > 12.5 µM (inactive); in assay [6], 4.21 µM (inactive). The GI50 in [7], in assay [8], in assay [9], in assay [10], in [11] and in assay [12] was > 12.5 µM (inactive) throughout. Also, the GI50 was 10.3 µM (inactive) in assay [13]; 8.24 µM (inactive) in assay [14]; > 12.5 µM (inactive) in assay [15]; > 12.5 µM (inactive) in [16]; > 12.5 µM (inactive) in assay [17]; 7.28 µM (inactive) in assay [18].
As for `CCOC(=O)C1(C)CCc2sc(N)c(C#N)c21` (stereo not given), the GI50 in assay [1], in assay [2], in assay [3], in [4], in assay [5] and in [6] was > 100 µM (inactive) in each case. Besides, the GI50 in [7], in [8], in assay [9], in assay [10], in assay [12] and in assay [13] was > 100 µM (inactive) throughout. Besides, the GI50 in [15], in assay [17] and in assay [18] was > 100 µM (inactive) throughout.
As to `CC(=O)O[C@H]1C(=O)O[C@@H]2C[C@H]3C(C)=CC(=O)[C@@H](O)[C@]3(C)[C@H]3[C@@]4(O)OC[C@]32[C@@H]1[C@@H](C)[C@H]4O`, the GI50 was 0.0312 µM (active) in assay [1]; 0.0234 µM (active) in [2]; 0.0498 µM (active) in assay [3]; 0.0329 µM (active) in assay [4]; 0.0279 µM (active) in assay [5]; 0.0266 µM (active) in [6]. Besides, the GI50 is 0.0318 µM (active) in assay [7]; 0.0219 µM (active) in [8]; 0.0211 µM (active) in assay [9]; 0.0243 µM (active) in assay [19]; 0.0577 µM (active) in assay [11]; 0.0444 µM (active) in assay [12]. Besides, the GI50 in assay [13] is 0.02 µM (active); in assay [20], 0.0432 µM (active); in assay [14], 0.0535 µM (active); in assay [15], 0.0611 µM (active); in assay [16] it was 0.524 µM (active); in assay [17] it was 0.0285 µM (active). Besides, the GI50 in [18] is 0.53 µM (active).
For `CCN(CC)CCC(=O)c1ccc(Oc2ccc(C)cc2)cc1`, the GI50 in [1] was 18 µM (inactive); in [2] it was 17.3 µM (inactive); in [3] it was 19.1 µM (inactive); in assay [4], 23.7 µM (inactive); in assay [5] it was 20.1 µM (inactive); in assay [6], 30.5 µM (inactive). Further, the GI50 in assay [7] is 10.9 µM (inactive); in assay [8] it was 16.6 µM (inactive); in assay [9], 17.7 µM (inactive); in assay [10], 35.2 µM (inactive); in assay [11] it was 24.4 µM (inactive); in [12], 19.8 µM (inactive). Further, the GI50 was 17.9 µM (inactive) in assay [13]; 18.8 µM (inactive) in [20]; 17.5 µM (inactive) in [14]; 33.2 µM (inactive) in assay [15]; 28.4 µM (inactive) in assay [16]; 17 µM (inactive) in assay [17].
With `CC#CC(O)(C(=O)OCCCN(C)C)C1CCCCC1` (stereo not given), the GI50 in assay [1], in [2], in assay [3], in assay [4], in assay [5] and in assay [6] was > 100 µM (inactive) throughout. Besides, the GI50 in [7], in assay [8], in [9], in assay [10], in assay [12] and in [13] was > 100 µM (inactive) in each case. For the same molecule, the GI50 in [20], in assay [14], in assay [15], in assay [16], in assay [17] and in assay [18] was > 100 µM (inactive) throughout.
On to `O=C(O)CCO/N=C1/C(=C2/C(=O)Nc3ccccc32)Nc2ccccc21`, for which the GI50 is 24.5 µM (inactive) in assay [1]; 12.3 µM (inactive) in assay [2]; 26.4 µM (inactive) in [3]; 36.1 µM (inactive) in assay [4]; 11.9 µM (inactive) in assay [5]; 36.7 µM (inactive) in assay [6]. In addition, the GI50 in assay [7] is 1.16 µM (inactive); in assay [8], 19.6 µM (inactive); in [9], 28.8 µM (inactive); in [19], 50.6 µM (inactive); in assay [11] it was 26.2 µM (inactive); in assay [12], 38.1 µM (inactive). Moreover, the GI50 in assay [13] was 25.4 µM (inactive); in assay [20], 26.1 µM (inactive); in assay [14], 35.1 µM (inactive); in [15], 7.18 µM (inactive); in [16] it was 2.98 µM (inactive); in assay [17], 30.3 µM (inactive). Also, in [18], the GI50 is 12 µM (inactive).
Turning to `COC(=O)/C=C1\C(CO[Si](C)(C)C(C)(C)C)OC(n2ccc(=O)[nH]c2=O)C1O` (stereo not given), the GI50 was 18.7 µM (inactive) in assay [1]; 4.4 µM (inactive) in assay [2]; 13.2 µM (inactive) in assay [3]; 15.2 µM (inactive) in assay [4]; 20 µM (inactive) in assay [5]; 5.4 µM (inactive) in assay [6]. Besides, the GI50 in assay [7] was 7.06 µM (inactive); in assay [8], 17.5 µM (inactive); in [9], 7.67 µM (inactive); in [10] it was 5.58 µM (inactive); in [11], 15 µM (inactive); in assay [12], 8.95 µM (inactive). Besides, the GI50 was 3.47 µM (inactive) in [13]; 0.367 µM (active) in assay [20]; 9.82 µM (inactive) in assay [14]; 6.25 µM (inactive) in assay [15]; 7.8 µM (inactive) in [17]; 9.89 µM (inactive) in assay [18].
As for `CCCCOC(=O)c1cc(C(=CCC[C@H]2CC[C@@]3(C)[C@@H](CC[C@@H]4[C@@H]3CC[C@]3(C)[C@@H](C(C)CCCC(C)C)CC[C@@H]43)C2)c2cc(Cl)c(O)c(C(=O)OCCCC)c2)cc(Cl)c1O` (stereo not given in full), the GI50 in assay [1] was > 50 µM (inactive); in assay [2] it was > 50 µM (inactive); in [3] it was > 50 µM (inactive); in assay [4] it was > 50 µM (inactive); in assay [5], > 50 µM (inactive); in assay [6] it was > 5 µM (inactive). In addition, the GI50 in [7], in [9], in assay [10], in [11], in assay [12] and in assay [13] was > 50 µM (inactive) in each case. The GI50 in assay [20], in assay [15] and in assay [17] was > 50 µM (inactive) in each case.
